# Columns and labels:
# Conditions in all cases: 48 h
# CU-ACC2 [1] = assay: area under concentration-response curve (viability) (AUC (a.u.)); higher = less active
# Method in brief: (§1)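 After 48 h of treatment with 23 nL of each library compound at 11 concentrations, three adrenocortical carcinoma cell lines in 1,536-well plates (500–1,000 cells/well, 5 µL medium) were given CellTiter-Glo for 15 minutes at room temperature. Luminescence was then read and normalised per plate to vehicle and empty-well controls. AC50 and area under the curve were drawn from fitted concentration-response curves of inhibitory or non-responding classes only.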
# NCI-H295R [2] = assay: as above
# Method in brief: as §1
# CU-ACC1 [3] = assay: as above
# Method in brief: as §1
# CU-ACC2 [4] = assay: AC50 viability; higher = less potent
# Method in brief: as §1
# NCI-H295R [5] = assay: AC50 viability; higher = less potent
# Method in brief: as §1
# CU-ACC1 [6] = assay: AC50 viability; higher = less potent
# Method in brief: as §1
structure (smiles),measurement,setting,value
COc1cccc2c1C(=O)c1c(O)c3c(c(O)c1C2=O)C[C@@](O)(C(=O)CO)C[C@@H]3O[C@H]1C[C@H](N)[C@@H](O)[C@H](C)O1,area under concentration-response curve,CU-ACC2 [1],507
same,area under concentration-response curve,NCI-H295R [2],510
same,area under concentration-response curve,CU-ACC1 [3],424
same,AC50 viability,CU-ACC2 [4],8.33 µM
same,AC50 viability,NCI-H295R [5],18.6 µM
same,AC50 viability,CU-ACC1 [6],10.5 µM
C[C@@H](NC(=O)c1ncnc(N)c1Cl)c1ncc(C(=O)Nc2cc(C(F)(F)F)c(Cl)cn2)s1,area under concentration-response curve,CU-ACC2 [1],316
same,area under concentration-response curve,NCI-H295R [2],318
same,area under concentration-response curve,CU-ACC1 [3],295
same,AC50 viability,CU-ACC2 [4],18.6 µM
same,AC50 viability,NCI-H295R [5],18.6 µM
same,AC50 viability,CU-ACC1 [6],18.6 µM
CCC(C)SSc1ncc[nH]1 (stereo not drawn),area under concentration-response curve,CU-ACC2 [1],507
same,area under concentration-response curve,NCI-H295R [2],491
same,area under concentration-response curve,CU-ACC1 [3],503
same,AC50 viability,CU-ACC2 [4],20.9 µM
same,AC50 viability,NCI-H295R [5],23.5 µM
same,AC50 viability,CU-ACC1 [6],33.2 µM
CC(C)[C@H](C(=O)Nc1ccc(C(=O)NO)cc1)c1ccccc1,area under concentration-response curve,CU-ACC2 [1],360
same,area under concentration-response curve,NCI-H295R [2],414
same,area under concentration-response curve,CU-ACC1 [3],308
same,AC50 viability,CU-ACC2 [4],5.25 µM
same,AC50 viability,NCI-H295R [5],2.35 µM
same,AC50 viability,CU-ACC1 [6],4.17 µM
CCCCOc1c(C(=O)c2c(F)cc(C)cc2F)cnc2[nH]ncc12,area under concentration-response curve,CU-ACC2 [1],407
same,area under concentration-response curve,NCI-H295R [2],432
same,area under concentration-response curve,CU-ACC1 [3],419
same,AC50 viability,CU-ACC2 [4],2.09 µM
same,AC50 viability,NCI-H295R [5],2.35 µM
same,AC50 viability,CU-ACC1 [6],1.48 µM
OCCCNc1cc(-c2ccnc(Nc3cccc(Cl)c3)n2)ccn1,area under concentration-response curve,CU-ACC2 [1],307
same,area under concentration-response curve,NCI-H295R [2],339
same,area under concentration-response curve,CU-ACC1 [3],275
same,AC50 viability,CU-ACC2 [4],0.0934 µM
same,AC50 viability,NCI-H295R [5],0.263 µM
same,AC50 viability,CU-ACC1 [6],0.148 µM
Oc1c(Cl)cc(Cl)c2cccnc12,area under concentration-response curve,CU-ACC2 [1],426
same,area under concentration-response curve,NCI-H295R [2],404
same,area under concentration-response curve,CU-ACC1 [3],417
same,AC50 viability,CU-ACC2 [4],14.8 µM
same,AC50 viability,NCI-H295R [5],16.6 µM
same,AC50 viability,CU-ACC1 [6],20.9 µM
CCCC1(CCC)CCC2(CCN(CCCN(CC)CC)C2)CC1,area under concentration-response curve,CU-ACC2 [1],516
same,area under concentration-response curve,NCI-H295R [2],448
same,area under concentration-response curve,CU-ACC1 [3],309
same,AC50 viability,CU-ACC2 [4],6.61 µM
same,AC50 viability,NCI-H295R [5],4.17 µM
same,AC50 viability,CU-ACC1 [6],4.68 µM
C=C1CC[C@@H]2[C@](C)(CO)[C@H](O)CC[C@@]2(C)[C@@H]1C/C=C1/C(=O)OC[C@H]1O,area under concentration-response curve,CU-ACC2 [1],388
same,area under concentration-response curve,NCI-H295R [2],372
same,area under concentration-response curve,CU-ACC1 [3],334
same,AC50 viability,CU-ACC2 [4],5.9 µM
same,AC50 viability,NCI-H295R [5],16.6 µM
same,AC50 viability,CU-ACC1 [6],11.8 µM
CO[C@@H]1[C@@H](O)[C@H](O)[C@@H](n2c3c(Cl)cccc3c3c4c(c5c6cccc(Cl)c6[nH]c5c32)C(=O)NC4=O)O[C@H]1CO,area under concentration-response curve,CU-ACC2 [1],438
same,area under concentration-response curve,NCI-H295R [2],494
same,area under concentration-response curve,CU-ACC1 [3],461
same,AC50 viability,CU-ACC2 [4],8.33 µM
same,AC50 viability,NCI-H295R [5],2.63 µM
same,AC50 viability,CU-ACC1 [6],3.32 µM
c1cncc(CN2CCC(n3ncc4c(N5CCOCC5)nc(-c5ccc6[nH]ccc6c5)nc43)CC2)c1,area under concentration-response curve,CU-ACC2 [1],472
same,area under concentration-response curve,NCI-H295R [2],446
same,area under concentration-response curve,CU-ACC1 [3],442
same,AC50 viability,CU-ACC2 [4],14.8 µM
same,AC50 viability,NCI-H295R [5],16.6 µM
same,AC50 viability,CU-ACC1 [6],20.9 µM
Cc1n[nH]c2ccc(-c3cncc(OC[C@@H](N)Cc4ccccc4)c3)cc12,area under concentration-response curve,CU-ACC2 [1],342
same,area under concentration-response curve,NCI-H295R [2],294
same,area under concentration-response curve,CU-ACC1 [3],305
same,AC50 viability,CU-ACC2 [4],1.18 µM
same,AC50 viability,NCI-H295R [5],2.35 µM
same,AC50 viability,CU-ACC1 [6],1.48 µM
COC1=CC=C(C(=C1)OC(C)C)C/2=N/[C@@H]([C@@H](N2C(=O)N3CCNC(=O)C3)C4=CC=C(Cl)C=C4)C5=CC=C(Cl)C=C5,area under concentration-response curve,CU-ACC2 [1],291
same,area under concentration-response curve,NCI-H295R [2],288
same,area under concentration-response curve,CU-ACC1 [3],290
same,AC50 viability,CU-ACC2 [4],14.8 µM
same,AC50 viability,NCI-H295R [5],10.5 µM
same,AC50 viability,CU-ACC1 [6],11.8 µM

# Reference: the supplement of paper PMC10949913
